Like-named read-outs stand apart in the source and are kept apart here.
Legend:
5-HT1A receptor = biological target: T1, 5-HT1A receptor (Sus scrofa, UniProt A0A4X1UTF5); assay: Affinity for serotonin 1A receptor: inhibition of [3H]MPPF binding in swine hippocampal membrane fraction; details: for IC50: [3H]MPPF 0.5 nM, swine hippocampal membrane, 37°C 30 min; for L/H ratio: low affinity IC50 divided by high affinity IC50, 1 or smaller = no intrinsic activity, 2 or greater = intrinsic activity
T1 construct: Swine hippocampus was homogenized in a 50 mM Tris-Hcl buffer; from tissue; host or cells: swine hippocampus, membrane fraction
T1 sequence (A0A4X1UTF5 1-422): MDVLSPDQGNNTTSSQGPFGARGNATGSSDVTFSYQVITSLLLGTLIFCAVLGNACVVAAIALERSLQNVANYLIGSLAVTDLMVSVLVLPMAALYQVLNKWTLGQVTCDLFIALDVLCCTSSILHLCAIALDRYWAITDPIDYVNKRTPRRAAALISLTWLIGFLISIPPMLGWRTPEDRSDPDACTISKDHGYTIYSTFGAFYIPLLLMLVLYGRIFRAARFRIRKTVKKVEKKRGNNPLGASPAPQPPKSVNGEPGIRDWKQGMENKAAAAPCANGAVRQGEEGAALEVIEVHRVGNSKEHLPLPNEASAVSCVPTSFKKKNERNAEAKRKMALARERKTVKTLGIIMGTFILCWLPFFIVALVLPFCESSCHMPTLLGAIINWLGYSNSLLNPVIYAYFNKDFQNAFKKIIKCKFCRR
From the text: (1) The affinity of a test substance for a 5-HT1A receptor was examined by an inhibition experiment, in which the inhibitory effect of the test substance against the binding of [^3H]-4-(2′-methoxy)phenyl-1-(2′-(N-2″-pyridinyl)-p-fluorobenzamido)ethyl-piperazine (MPPF) that selectively binds to the 5-HT1A receptor in a swine hippocampal membrane fraction was examined. The 5-HT1A receptor that is a G-protein binding receptor becomes a G-protein binding state with addition of MgCl2. In contrast, it becomes a G-protein non-binding state with addition of guanylylimido diphosphate (Gpp(NH)p). […] Thus, both the affinity of a test substance to the receptor that was in a state of not binding to the G-protein and the affinity of the test substance to the receptor that was in a state of binding to the G-protein were obtained. Then, the obtained values were compared to each other, so as to estimate the level of the intrinsic activity of the test substance. Theoretically, when the value (L/H) obtained by dividing the affinity of a test substance to the receptor that is in a low affinity state (IC50 value) by the affinity of a test substance to the receptor that is in a high affinity state (IC50 value) is 1 or less, the intrinsic activity thereof is zero. The greater this value, the higher the intrinsic activity that can be obtained.
Swine hippocampus was homogenized in a 50 mM Tris-Hcl buffer (pH 7.4; hereinafter referred to as buffer A) that had been cooled on ice. The suspension was centrifuged at 40,000×g for 15 minutes. The obtained pellet was suspended in buffer solution A, and the thus obtained solution was then centrifuged at 40,000×g for 15 minutes. The same operation was repeated 2 or 3 times. The finally obtained pellet was suspended in a buffer solution A in an amount 10 times the wet weight of the swine hippocampus, so as to obtain a membrane fraction. The obtained membrane fraction was stored at −80° C. until use.
A mixture (0.5 ml) used for incubation comprised an appropriate amount of the membrane fraction, a test substance with a desired concentration, MgCl2 (final concentration: 10 mM) or Gpp(NH)p (final concentration: 1 mM), [^3H]MPPF (final concentration: 0.5 nM), dimethyl sulfoxide (final concentration: 1% (v/v)), and a 50 mM Tris-Hcl buffer (pH 7.4). The reaction was initiated with addition of the membrane fraction, and the mixture was incubated at 37° C. for 30 minutes. After completion of the incubation, the mixture was subjected to vacuum filtration with a glass filter, using Cell Harvester. The filter was washed with buffer solution A that had been cooled on ice. Thereafter, radioactivity binding to the receptor was measured with a liquid scintillation counter. Non-specific binding was defined as binding detected in the presence of 10 μM WAY-100,635.

serotonin 1A receptor = biological target: T2, serotonin 1A receptor (Mus musculus, UniProt Q64264); assay: Antagonistic effect on serotonin 1A receptor agonist (8-OH-DPAT)-induced hypothermia in mouse; type: in vivo; details: CD-1 (ICR) male mice; inhibition of hypothermia by 8-OH-DPAT 0.5 mg/kg sc; test substance 15 minutes before agonist
T2 construct: into the rectum of CD-1 (ICR) male mice (25-45 g); from tissue; host or cells: living CD-1 (ICR) male mice (in vivo)
T2 sequence (Q64264 1-421): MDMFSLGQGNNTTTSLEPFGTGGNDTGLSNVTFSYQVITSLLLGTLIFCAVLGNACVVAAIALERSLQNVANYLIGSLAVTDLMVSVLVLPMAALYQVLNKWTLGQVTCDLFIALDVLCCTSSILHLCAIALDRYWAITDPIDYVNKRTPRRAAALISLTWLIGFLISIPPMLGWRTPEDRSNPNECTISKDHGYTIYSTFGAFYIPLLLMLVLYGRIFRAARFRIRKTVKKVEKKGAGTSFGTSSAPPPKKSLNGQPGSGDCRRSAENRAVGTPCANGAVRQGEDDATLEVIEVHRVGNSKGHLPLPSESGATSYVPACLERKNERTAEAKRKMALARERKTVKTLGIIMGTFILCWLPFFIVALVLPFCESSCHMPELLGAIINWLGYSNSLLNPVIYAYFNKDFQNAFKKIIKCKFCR
Experimental: (1) A thermistor probe was inserted at a depth of approximately 2 cm into the rectum of CD-1 (ICR) male mice (25-45 g), so as to measure the body temperature thereof. Body temperature is decreased by subcutaneous administration of serotonin 1A receptor agonist (8-hydroxy-dipropylaminotetralin (8-OH-DPAT) 0;5 mg/kg. Since a serotonin 1A antagonist inhibits such action, the antagonistic effect of a test substance to a serotonin 1A receptor was evaluated using the inhibitory effect of the hypothermia as an index. The test results are shown in Table 2 indicated below. A test substance was administered 15 minutes before the administration of the serotonin 1A agonist. A serotonin 1A partial agonist alone decreases the body temperature, depending on the degree of the agonistic action thereof. In addition, it has a weak antagonistic effect on 8-OH-DPAT-induced hypothermia.

[1] = receptor in high affinity (G-protein binding, MgCl2 10 mM) state, read-out: High affinity IC50
[2] = receptor in low affinity (G-protein non-binding, Gpp(NH)p 1 mM) state, read-out: Low affinity IC50

IC50 (5-HT1A receptor; [1]) [nM] | IC50 (5-HT1A receptor; [2]) [nM] | L/H ratio (5-HT1A receptor) | ED50 (serotonin 1A receptor) | SMILES
0.57 | 0.45 | 0.8 | 0.24 mg/kg, sc | CCc1nc2ccc(OC)c(CCN3CCC(n4ccc5ccc(C(N)=O)cc54)CC3)c2o1 [Compound 5]
0.2 | 0.2 | 1 | 0.35 mg/kg, sc | CCc1nc2cc(CCN3CCC(n4ccc5ccc(C(N)=O)cc54)CC3)c(OC)cc2o1 [Compound 6, 1-{1-[2-(2-ethyl-6-methoxybenzoxazol-5-yl)ethyl]piperidin-4-yl}-1H-indole-6-carboxamide]
0.41 | 0.3 | 0.7 | 0.38 mg/kg, sc | COc1ccc2oc(C)nc2c1CCN1CCC(n2ccc3ccc(C(N)=O)cc32)CC1 [Compound 7, 1-{1-[2-(5-methoxy-2-methylbenzoxazol-4-yl)ethyl]piperidin-4-yl)-1H-indole-6-carboxamide]
0.22 | 0.23 | 1 | 0.07 mg/kg, sc | COc1cc2nc(C)oc2cc1CCN1CCC(n2ccc3ccc(C(N)=O)cc32)CC1 [Compound 8, 1-{1-[2-(5-methoxy-2-methylbenzoxazol-6-yl)ethyl]piperidin-4-yl}-1H-indole-6-carboxamide]
0.17 | 0.13 | 0.8 | 0.3 mg/kg, sc | COc1cc2c(cc1CCN1CCC(n3ccc4ccc(C(N)=O)cc43)CC1)C(=O)N(C)CCO2 [Compound 9, 1-{1-[2-(8-methoxy-4-methyl-5-oxo-2,3,4,5-tetrahydrobenzo[f][1,4]oxazepin-7-yl)ethyl]piperidin-4-yl}-1H-indole-6-carboxamide]
0.13 | 0.1 | 0.8 | 0.1 mg/kg, sc | COc1ccc2c(c1CCN1CCC(n3ccc4ccc(C(N)=O)cc43)CC1)OC(C)(C)CC2=O [Compound 22, 1-{1-[2-(7-methoxy-2,2-dimethyl-4-oxochroman-8-yl)ethyl]piperidin-4-yl}-1H-indole-6-carboxamide]
0.22 | 0.17 | 0.8 | 0.3 mg/kg, sc | COc1cc2c(cc1CCN1CCC(n3ccc4ccc(C(N)=O)cc43)CC1)C(=O)CC(C)(C)O2 [Compound 24, 1-{1-[2-(7-methoxy-2,2-dimethyl-4-oxochroman-6-yl)ethyl]piperidin-4-yl}-1H-indole-6-carboxamide]
0.18 | 0.16 | 0.9 | 0.1 mg/kg, sc | COc1ccc2c(c1CCN1CCC(n3ccc4ccc(C(N)=O)cc43)CC1)CCC2=O [Compound 25, 1-{1-[2-(5-methoxy-1-oxoindan-4-yl)ethyl]piperidin-4-yl}-1H-indole-6-carboxamide]
0.16 | 0.2 | 1.3 | 0.25 mg/kg, sc | COc1cc2c(cc1CCN1CCC(n3ccc4ccc(C(N)=O)cc43)CC1)C(=O)CC2 [Compound 26, 1-{1-[2-(6-methoxy-3-oxoindan-5-yl)ethyl]piperidin-4-yl}-1H-indole-6-carboxamide]
0.23 | 0.26 | 1.1 | 0.42 mg/kg, sc | COc1ccc2sc(C)nc2c1CCN1CCC(n2ccc3ccc(C(N)=O)cc32)CC1 [Compound 27, 1-{1-[2-(5-methoxy-2-methylbenzothiazol-4-yl)ethyl]piperidin-4-yl}-1H-indole-6-carboxamide]
0.14 | 0.19 | 1.4 | 0.02 mg/kg, sc | COc1cc2nc(C)sc2cc1CCN1CCC(n2ccc3ccc(C(N)=O)cc32)CC1 [Compound 28, 1-{1-[2-(5-methoxy-2-methylbenzothiazol-6-yl)ethyl]piperidin-4-yl}-1H-indole-6-carboxamide]
0.2 | 0.19 | 1 | 0.62 mg/kg, sc | COc1ccc2ncccc2c1CCN1CCC(n2ccc3ccc(C(N)=O)cc32)CC1 [Compound 30, 1-{1-[2-(6-methoxyquinolin-5-yl)ethyl]piperidin-4-yl}-1H-indole-6-carboxamide]
0.16 | 0.15 | 0.9 | 0.04 mg/kg, sc | COc1cc2c(cc1CCN1CCC(n3ccc4ccc(C(N)=O)cc43)CC1)OCCO2 [Compound 31, 1-{1-[2-(7-methoxy-2,3-dihydrobenz[1,4]dioxin-6-yl)ethyl]piperidin-4-yl}-1H-indole-6-carboxamide]
0.26 | 0.25 | 1 | 0.04 mg/kg, sc | COc1ccc2c(c1CCN1CCC(n3ccc4ccc(C(N)=O)cc43)CC1)OCCO2 [Compound 32, 1-{1-[2-(6-methoxy-2,3-dihydrobenz[1,4]dioxin-5-yl)ethyl]piperidin-4-yl}-1H-indole-6-carboxamide]
0.17 | 0.12 | 0.7 | 0.12 mg/kg, sc | COc1cc2c(cc1CCN1CCC(n3ccc4ccc(C(N)=O)cc43)CC1)C(=O)N(C)CC2 [Compound 33, 1-{1-[2-(6-methoxy-2-methyl-1-oxo-1,2,3,4-tetrahydroisoquinoline-7-yl)ethyl]piperidin-4-yl}-1H-indole-6-carboxamide]
0.26 | 0.2 | 0.8 | 0.37 mg/kg, sc | COc1ccc2c(c1CCN1CCC(n3ccc4ccc(C(N)=O)cc43)CC1)CCN(C)C2=O [Compound 34, 1-(1-(2-(6-methoxy-2-methyl-1-oxo-1,2,3,4-tetrahydroisoquinolin-5-yl)ethyl)piperidin-4-yl)-1H-indole-6-carboxamide]
0.27 | 0.23 | 0.9 | 0.2 mg/kg, sc | COc1ccc2c(=O)ccoc2c1CCN1CCC(n2ccc3ccc(C(N)=O)cc32)CC1 [Compound 35, 1-{1-[2-(7-methoxy-4-oxo-4H-chromen-8-yl)ethyl]piperidin-4-yl}-1H-indole-6-carboxamide]

Reference: patent US20050256103A1, “Indole derivative having piperidine ring” (Eisai Co., Ltd., priority 2004, published 2005)
